PMC7463931, “Structure-Antifouling Activity Relationship and Molecular Targets of Bio-Inspired(thio)xanthones” (Biomolecules, 2020)
Where two headings read alike, the source gives them in different places.

What was measured:
[1] = test system: Mytilus galloprovincialis plantigrade larvae; assay: M. galloprovincialis larvae anti-settlement bioassay; assay type: in vivo; settings: for EC50: dose-response, read-out: EC50 (concentration that inhibited 50% of larval settlement); for inhibition at 50 µM: initial screening bioassay at 50 µM, 15 h
Method: (§1) The 19 xanthone derivatives were screened for anti-settlement activity toward M. galloprovincialis plantigrade larvae. Samples of M. galloprovincialis juveniles were collected from mussel beds during low tides in the intertidal zone of Memória beach, Matosinhos, Portugal (41°13′59″ N; 8°43′28″ W). Mussel plantigrade larvae (0.5–2 mm) were sorted in a binocular magnifier (Olympus SZX2-ILLT, Tokyo, Japan) and kept in filtered seawater until bioassays preparation. […] Five competent larvae were included per well and four well replicates per condition. Stock solutions (50 mM) in DMSO were used to prepare test media in filtered seawater (0.1%). Negative and positive controls were used, namely DMSO (0.1%) and CuSO4 (5 μM) as an efficient antifouling agent. After exposure, the anti-settlement bioactivity was determined by the observation of efficiently attached plantigrade larvae considering the existence/absence of produced byssal threads for each test condition. Compounds producing more than 50% of settlement inhibition at 50 µM were selected for antifouling effectiveness (EC50) and toxicity (LC50 and therapeutic index) bioassays, according to previously validated experimental conditions.
(§2) Therapeutic ratios (LC50/EC50) were used to evaluate the effectiveness versus toxicity of bioactive compounds. For the differential proteome analysis, non-parametric Kruskall-Wallis (KW) and Mann Whitney (MW) tests were utilized to report protein abundance differences between treatments in MultiExperiment Viewer (MeV) version 4.9 (The Institute for Genomic Research (TIGR), La Jolla, CA, USA) at a confidence level of 95% [34]. The hierarchical clustering of proteins was made using Pearson correlation and average linkage method.

[2] = test system: Mytilus galloprovincialis plantigrade larvae; assay: Toxicity (mortality, LC50) to mussel plantigrade larvae in the anti-settlement bioassay; assay type: in vivo
Method: as §1, §2

[3] = as above; assay type: in vivo, Mytilus galloprovincialis; settings: Mytilus galloprovincialis, in vivo, other: immersion in test media in filtered seawater; mussel plantigrade larvae; read-out: LC50 (median lethal dose)
Method: as §1, §2

[4] = test system: Artemia salina nauplii; assay: Brine shrimp (Artemia salina) lethality test; assay type: in vivo; settings: 25 and 50 µM, 48 h of exposure
Method: Ecotoxicity to non-target species was assessed using the brine shrimp (Artemia salina) lethality test standard protocol. Artemia cysts were cultivated and newly hatched nauplii I were used for the exposure to the most promising antifouling compounds at 50 and 25 µM. The bioassay was performed in 96-well microplates with eight replicates per condition and 15–20 nauplii per well. Positive (K2Cr2O7 at 13.6 µM) and negative (DMSO) controls were included. After 48 h of exposure, the percentage of nauplii mortality was determined.

[5] = test system: Agaricus bisporus tyrosinase; assay: In vitro determination of tyrosinase inhibition activity; assay type: biochemical
Method: Tyrosinase inhibition assays were conducted using Agaricus bisporus tyrosinase (EC 1.14.18.1) according to Adhikari et al. with appropriate adaptations. The enzymatic reaction follows the catalytic conversion of L-Dopa to dopaquinone and the formation of dopachrome by measuring the absorbance at 475 nm. Briefly, 50 µL of tyrosinase (25 U.mL^−1) in 50 mM phosphate buffer pH 6.5, adding the defined concentration of compounds in DMSO. The enzymatic activity was initiated by L-dopa (25 mM). Kojic acid was used as positive control and DMSO as negative control.

[6] = molecular target: T1, Electrophorus electric AChE Type V-S (Electrophorus electricus, UniProt O42275); assay: In vitro determination of acetylcholinesterase (AChE) inhibition activity; assay type: biochemical; settings: for AChE inhibition compared to control: 50 µM; for dose-response of AChE activity: Figure 4b
T1 construct: purchased SIGMA C2888
Method: AChE inhibition was evaluated as a neurotransmission biomarker for the 19 compounds using Electrophorus electric AChE Type V-S (SIGMA C2888, E.C. 3.1.1.7), according to Ellman et al. (1961) and modified by Almeida et al. (2015). Briefly, 250 μL of the reaction solution containing 30 mL of phosphate buffer, 1mL of the reagent dithiobisnitrobenzoate (DTNB) at 10 mM (acid dithiobisnitrobenzoate and sodium hydrogen carbonate in phosphate buffer), and 200 μL of […] 0.075 M was added to 50 μL of pure AChE (0.25 U.mL^−1) and each test compound at final concentration of 30 μg mL^−1 in quadruplicate. AChE activity was followed at 412 nm during 5 min at 25 °C. Negative and positive controls were included, namely ultra-pure water and eserine (20 mM), respectively, and a blank containing 50 μL of phosphate buffer.

[7] = test system: Mytilus galloprovincialis plantigrade larvae; set-up: method as in PMID 31669574; settings: at 108 µM, same bioassay conditions; cited from earlier work

T1 sequence (O42275 24-633): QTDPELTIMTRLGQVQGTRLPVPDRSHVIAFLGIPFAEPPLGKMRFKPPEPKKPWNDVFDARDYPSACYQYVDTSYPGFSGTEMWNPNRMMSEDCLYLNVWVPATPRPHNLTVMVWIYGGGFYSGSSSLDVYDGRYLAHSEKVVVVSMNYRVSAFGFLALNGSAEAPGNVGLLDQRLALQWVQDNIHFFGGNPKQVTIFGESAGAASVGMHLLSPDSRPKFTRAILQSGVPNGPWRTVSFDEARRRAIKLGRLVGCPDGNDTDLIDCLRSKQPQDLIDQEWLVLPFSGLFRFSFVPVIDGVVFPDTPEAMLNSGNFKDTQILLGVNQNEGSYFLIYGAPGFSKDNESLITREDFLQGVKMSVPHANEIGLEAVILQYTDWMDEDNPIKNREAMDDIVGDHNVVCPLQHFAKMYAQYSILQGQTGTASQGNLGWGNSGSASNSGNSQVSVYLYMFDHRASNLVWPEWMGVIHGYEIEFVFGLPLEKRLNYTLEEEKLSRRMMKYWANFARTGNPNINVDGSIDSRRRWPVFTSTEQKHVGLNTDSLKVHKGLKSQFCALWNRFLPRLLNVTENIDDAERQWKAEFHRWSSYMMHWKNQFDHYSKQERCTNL

SMILES	EC50 ([1]; Probit regression, 95% CI)	EC50 [1]	inhibition at 50 µM [1]	mortality of mussel plantigrade larvae ([2]; at 100 µM)	LC50 at 15 h [3]	Artemia salina mortality [4]	induction of tyrosinase activity ([5]; 25 μM)	induction of tyrosinase activity ([5]; 200 μM)	AChE inhibition compared to control [6]	dose-response of AChE activity [6]	mortality of mussel plantigrade larvae ([2]; at 500 µM)	mortality of mussel plantigrade larvae [7]	inhibition of tyrosinase activity ([5]; 50 µM)
CC1(C)CCc2cc3c(=O)c4ccccc4oc3c(O)c2O1 [Compound 10, 4-dihydro-12-hydroxy-2,2-dimethyl-2H,6H-pyrano [3,2-b]xanthone]	4.6 µM	1.36 µg/mL	75 ± 9.6%	15%	> 500 µM	< 10%							
O=c1c2ccccc2oc2c(O)c(O)ccc12 [Compound 7, 3,4-dihydroxy-]	11.5 µM	2.63 µg/mL	65 ± 17.1%		> 500 µM	< 10%	11.7%	62.5%					
O=c1c2ccccc2oc2ccc(O)c(O)c12 [Compound 5, 1,2-dihydroxy-]	15.5 µM	3.52 µg/mL	70 ± 12.9%		> 500 µM	> 10%			showed AChE inhibition	concentration-dependent modulation of AChE activity			
CCCOc1ccc(N2CCCCC2)c2c(=O)c3ccccc3sc12 [Compound 17, 1-(piperidin-1-yl)-4-propoxy-9H-thioxanthen-9-one]	3.53 µM	1.25 µg/mL	71.7 ± 5%		> 500 µM	> 10%					17%		
N#Cc1c(-c2ccc(Cl)cc2)[nH]c(C(F)(F)F)c1Br [ECONEA]												50%	
O=c1c2ccccc2oc2c(O)cccc12 [Compound 4, 4-hydroxy-]	21.5 µM	4.55 µg/mL	70 ± 12.9%		> 500 µM	> 10%			showed AChE inhibition	concentration-dependent modulation of AChE activity			
O=c1c2ccc(O)cc2oc2cc(O)ccc12 [Compound 8, 3,6-dihydroxy-]													34%
CCCOc1ccc(NCCc2ccc3c(c2)OCO3)c2c(=O)c3ccccc3sc12 [Compound 15, 1-[11]-4-propoxy-9H-thioxanthen-9-one]	28.6 µM	12.4 µg/mL	71.2 ± 10.9%		> 500 µM	> 10%							
